Holding throughout (test): DTP human tumour cell line panel, 48 h
Assay [1] deals with 786-0.
Assay [2] has as its system DLD-1.
The subject of assay [3] is HCC 2998.
Assay [4] concerns HL-60.
The subject of assay [5] is HT-29.
In assay [6] the test system is Malme-3M.
Assay [7] deals with NCI-H226.
Assay [8] concerns NCI-H460.
The subject of assay [9] is OVCAR-3.
Assay [10] relates to OVCAR-5.
The subject of assay [11] is SF-268.
Assay [12] concerns SF-539.
For assay [13], the system named is SK-MEL-5.
Assay [14] concerns SNB-19.
The test system of assay [15] is SNB-75.
The subject of assay [16] is TK-10.
For assay [17], the system named is LOX IMVI.

From ChEMBL document CHEMBL1201862, “PubChem BioAssay data set” (2004) come the findings set out here.

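Results reflect a 48-hour exposure of cells in 96-well plates to compound at five concentrations. GI50: concentration for 50% inhibition of growth.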 Active and inactive are the calls of the source. Cut-off read from the data, not from the text of the source: active = GI50 up to about 1.1 µM and inactive = higher.

What is called GI50 is the concentration that inhibits growth by half. Take `Cc1ccc(NC(=O)/C(C#N)=C/c2ccccc2)c(C)c1`: the GI50 in [1], in assay [2], in assay [3], in assay [4], in assay [5] and in assay [6] was > 100 µM (inactive) throughout. For the same compound, the GI50 in assay [7], in [8], in [9], in [10], in assay [11] and in assay [12] was > 100 µM (inactive) each time. Moreover, the GI50 in assay [13], in [14], in [15] and in assay [16] was > 100 µM (inactive) each time.
`N#C/C(=N\c1ccccc1N(C(=O)c1ccccc1)C(=O)c1ccccc1)c1ccccc1`: the GI50 in [1] was > 91.6 µM (inactive); in assay [2] it was > 42 µM (inactive); in assay [3], > 68.4 µM (inactive); in [4] it was 0.923 µM (active); in assay [5], 15.3 µM (inactive); in assay [17], 27.2 µM (inactive). The GI50 in assay [6] was > 100 µM (inactive); in [7] it was > 69.5 µM (inactive); in assay [8], 32.8 µM (inactive); in assay [9], 8.91 µM (inactive); in assay [10] it was > 47.4 µM (inactive); in assay [11], > 100 µM (inactive). For the same compound, the GI50 was > 100 µM (inactive) in [12]; 70.8 µM (inactive) in assay [13]; 3.62 µM (inactive) in [14]; > 100 µM (inactive) in assay [15]; > 100 µM (inactive) in [16].
For `COc1ccc2c(c1)[n+]([O-])c(C(=O)C/C(=N\NC(=O)C[N+](C)(C)C)C(=O)Nc1cc(Cl)ccc1Cl)c(C)[n+]2[O-]`, the GI50 in [1] was > 100 µM (inactive); in [2], > 100 µM (inactive); in assay [3] it was > 100 µM (inactive); in [4], 88.3 µM (inactive); in assay [5], > 100 µM (inactive); in assay [17], > 100 µM (inactive). Also, the GI50 in [6], in assay [7], in [8], in [9], in assay [10] and in assay [11] was > 100 µM (inactive) throughout. Also, the GI50 in assay [12], in [13], in assay [14], in [15] and in [16] was > 100 µM (inactive) throughout.
Take `COc1ccc(-c2cc(C(=O)Nc3cccc(C(F)(F)F)c3)nc(S)n2)cc1`: the GI50 in assay [1], in assay [2], in assay [3], in assay [4], in assay [5] and in [17] was > 100 µM (inactive) in each case. The GI50 in assay [6], in [7], in assay [8], in assay [9], in assay [10] and in assay [11] was > 100 µM (inactive) in each case. Moreover, the GI50 in [12], in [13], in [14], in assay [15] and in [16] was > 100 µM (inactive) throughout.
`Cc1cc(Cl)ccc1NC(=O)C1C(=O)C(=O)N(c2ccc(Cl)cc2C)C1=O` (stereo unspecified): the GI50 is > 100 µM (inactive) in assay [1]; > 100 µM (inactive) in assay [2]; > 100 µM (inactive) in assay [3]; > 100 µM (inactive) in [4]; 96.2 µM (inactive) in assay [5]; > 100 µM (inactive) in assay [17]. In addition, the GI50 in [6] is > 100 µM (inactive); in assay [7] it was 49.8 µM (inactive); in assay [9] it was 36.9 µM (inactive); in assay [10] it was 48.3 µM (inactive); in assay [11], 53 µM (inactive); in assay [12], > 100 µM (inactive). Further, the GI50 in assay [13] is > 100 µM (inactive); in assay [14] it was 21 µM (inactive); in [15] it was > 100 µM (inactive); in assay [16], > 100 µM (inactive).
Take `NC(CO)c1ccc(OCc2ccccc2)cc1` (stereo unspecified): the GI50 in assay [1] is > 100 µM (inactive); in assay [2], > 100 µM (inactive); in assay [3], > 100 µM (inactive); in assay [4] it was 24.4 µM (inactive); in assay [5], > 100 µM (inactive); in assay [17], 47.3 µM (inactive). Also, the GI50 in assay [6], in [7], in assay [8], in assay [9], in assay [10] and in assay [11] was > 100 µM (inactive) each time. The GI50 in [12] is > 100 µM (inactive); in assay [13], > 100 µM (inactive); in [14], > 63.7 µM (inactive); in assay [15], 20.3 µM (inactive); in [16], > 100 µM (inactive).
As to `CC(=O)O[C@H]1CC[C@@]2(C)C(=CC[C@@H]3C2CC[C@]2(C)Nc4c(cnn4-c4ccccc4)CC32)C1` (stereo partly specified), the GI50 is 4.73 µM (inactive) in assay [1]; 21.4 µM (inactive) in [2]; 16 µM (inactive) in assay [3]; 2.77 µM (inactive) in assay [4]; 4.82 µM (inactive) in assay [5]; 29.9 µM (inactive) in [6]. The GI50 in [7] was > 100 µM (inactive); in assay [8], 4.97 µM (inactive); in assay [9] it was 48.2 µM (inactive); in assay [10] it was 19.2 µM (inactive); in assay [12] it was 2.51 µM (inactive); in assay [13] it was 28.1 µM (inactive). Further, the GI50 was 4.07 µM (inactive) in assay [15] and 56.5 µM (inactive) in [16].
On to `COc1c2c(c3c(c1C1OC(C)[C@@H](C)O1)CC(C)(C)O3)C(=O)c1ccccc1C2=O` (stereo partly specified), for which the GI50 in [1] was 72.9 µM (inactive); in assay [2], 36.1 µM (inactive); in [3] it was 76.2 µM (inactive); in assay [4] it was 13.5 µM (inactive); in assay [5], 31.6 µM (inactive); in [17], 15 µM (inactive). Moreover, the GI50 was 64.6 µM (inactive) in assay [6]; > 100 µM (inactive) in assay [7]; 37.6 µM (inactive) in assay [8]; 38.2 µM (inactive) in assay [9]; > 100 µM (inactive) in assay [10]; 54.2 µM (inactive) in assay [11]. Moreover, the GI50 in assay [12] was > 100 µM (inactive); in [13], 56.8 µM (inactive); in assay [14], > 100 µM (inactive); in [15], 46.5 µM (inactive); in assay [16], > 100 µM (inactive).
In the case of `CCOc1ccc2c(c1)[n+]([O-])c(-c1ccccc1Cl)c(N)[n+]2[O-]`, the GI50 in [1] is > 100 µM (inactive); in assay [2], > 100 µM (inactive); in [4], 56.5 µM (inactive); in assay [5] it was > 100 µM (inactive); in [6], > 100 µM (inactive); in assay [7], > 100 µM (inactive). Besides, the GI50 was > 100 µM (inactive) in [8]; > 100 µM (inactive) in assay [9]; > 100 µM (inactive) in assay [10]; > 100 µM (inactive) in assay [11]; > 100 µM (inactive) in assay [12]; 90.2 µM (inactive) in assay [13]. Further, the values for the GI50 in [14] and in assay [15] were > 100 µM (inactive) and 80 µM (inactive), respectively.
For `O=C1NC2C=CN(Cc3ccccc3)C=C2C(=O)N2CCCC12` (stereo unspecified), the GI50 in [1], in assay [2], in assay [3], in [4], in [5] and in assay [6] was > 100 µM (inactive) in each case. The GI50 in assay [7], in assay [8], in [9], in [10], in assay [11] and in assay [12] was > 100 µM (inactive) in each case. In addition, the GI50 in assay [13], in assay [14], in [15] and in assay [16] was > 100 µM (inactive) in each case.
Regarding `CN(C)CCc1ccc(Cl)cc1Cl`, the GI50 in assay [1], in assay [2], in assay [3], in assay [4], in assay [5] and in assay [17] was > 100 µM (inactive) in each case. Moreover, the GI50 in assay [6], in assay [8], in assay [10], in [11], in assay [12] and in assay [13] was > 100 µM (inactive) throughout. For the same compound, the GI50 is > 100 µM (inactive) in assay [14], 28.3 µM (inactive) in [15] and > 100 µM (inactive) in [16].
Turning to `O=C(O)c1c2c(cc3c(=O)cc(-c4ccccc4)oc13)CCCC2`, the GI50 in assay [1], in assay [2], in assay [3], in assay [5], in [17] and in assay [6] was > 100 µM (inactive) each time. The GI50 in [8], in assay [9], in [10], in assay [11], in [12] and in assay [13] was > 100 µM (inactive) each time. Also, the GI50 in assay [14] was > 100 µM (inactive); in assay [15], 6.59 µM (inactive); in [16], > 100 µM (inactive).
